According to article PMC10458859, “Stem Cell Bioengineering with Bioportides: Inhibition of Planarian Head Regeneration with Peptide Mimetics of Eyes Absent Proteins” (Pharmaceutics, 2023):
[ ]: non-standard residue; d: D form. Aib = CC(C)(N)C(=O)O

Legend:
[1] = test system: decapitated S. mediterranea; assay: Anterior pole regeneration and eye development assay; format: in vivo, Schmidtea mediterranea; settings: for influence upon planarian head regeneration: 25 μM exogenous application to decapitated S. mediterranea, monitored over 8 days; for response to light: 25 μM in PAM after amputation, day 8; for response to light / regeneration of the anterior pole, including the eye spots: re-treated day 4; for regeneration of the anterior pole, including the eye spots: 25 μM in PAM immediately after transverse amputation, observed day 8, compared to PAM alone; for animals that achieved full regeneration / animals that had commenced the development of photoreceptors within the unpigmented blastema: n = 9; for animals that had commenced the development of photoreceptors within the unpigmented blastema: 25 μM, day 9 post amputation
Experimental: Adult planaria, 4–6 mm in length, and selected for experimentation were starved 5 days prior to amputation. Transverse amputation of planarian heads, post-auricle and pre-pharynx, induced blastema formation in the trunk section, leading to eye regeneration and head remodeling.
Post amputation, planaria were immediately treated with exogenously added Djeya1 analogues in 35 mm diameter × 10 mm depth culture dishes (VWR International Ltd., Lutterworth, UK) to a final volume of 4 mL PAM and maintained at 20 °C. PAM, containing Djeya1 analogues, was replenished 4 days post amputation. […]

[2] = Circular dichroism secondary structure analysis; format: physicochemical; settings: CD; for difference in percentage α-helicity in the presence of lipid membranes: DMPC and DMPS vesicles, lipid:peptide 100 to 1
Experimental: Secondary structure analyses of Djeya1 peptides were performed on a Jasco J-815 CD spectrometer (Jasco Ltd., Heckmondwike, UK). Peptides (0.01 mg mL^−^1) were dissolved in either 1 × phosphate buffered saline (PBS) at pH 7.4 or in a 2,2,2-tetrafluoroethanol (TFE) and 1 × PBS mixture (50.0% v/v). All buffers were prepared using ultra-pure water (resistivity 18 MΩ cm), PBS and TFE (Scientific Laboratory Supplies Ltd., Nottingham, UK). CD experiments were also performed at peptide:lipid ratios of 1:100, whilst 1,2-dimyristoyl-sn-glycero-3-phosphatidylcholine (DMPC) and 1,2-dimyristoyl-sn-glycero-3-phosphatidylserine (DMPS) (5 mg mL^−^1) (Avanti Polar Lipids, Alabaster, AL, USA) were dissolved separately in chloroform (HPLC grade, VWR International Ltd Lutterworth, UK) and dried under N2 gas. The lipid film was rehydrated using 1 × PBS, pH 7.5 for 1 h or until the solution was no longer turbid. The solution then underwent 5 cycles of freeze thaw before the lipid/peptide samples were prepared by the addition of peptide stock solution (final concentration 0.01 mg mL^−^1). Far UV CD spectra (180 nm to 260 nm) were recorded at 20 °C using 0.5 nm intervals, a bandwidth of 1 nm, a scan speed of 50 nm min^−1 and a 10 mm path-length cell. Ten accumulations were selected to average a single spectrum. Samples without peptide were prepared for background spectral subtraction. Data, baseline-subtracted and averaged CD, were analyzed using the Dichroweb server CDSSTR and SELCON3 reference dataset 3 [23, 24, 25]. To generate percentage structure averages, these analyses were repeated four times.

U373MG cells = assay: Quantitative peptide uptake, U373MG; format: cell-based; settings: TAMRA-labelled peptides 1, 2.5, 5 μM, 1 h, 37 °C, lysate fluorescence 544/590 nm, two experiments in triplicate
Experimental: (§1) U373MG and U251 cells were maintained as above and then transferred to 6-well plates and grown to 80% confluence. Cells were washed and maintained in phenol red-free DMEM and subsequently treated with TAMRA-conjugated Djeya1 analogues at final concentrations of 1 μM, 2.5 μM, and 5 μM for 1 h in culture conditions as above. Cells were washed four times, detached with 300 μL of 1% (w/v) trypsin (without phenol red) at 37 °C, collected by centrifugation, and lysed in 300 μL 0.1 M NaOH for 2 h on ice. A total of 250 μL of each sample cell lysate was transferred to a black 96-well plate and analysed using a Thermo Fischer Scientific (Loughborough, UK) Fluoroskan Ascent FL fluorescence spectrophotometer (λAbs 544 nm/λEm 590 nm).

U251 cells = assay: Quantitative peptide uptake, U251; format: cell-based; settings: 1 h, 37 °C; for rank order of uptake efficacy: U251, TAMRA-labelled peptides 1, 2.5, 5 μM, lysate fluorescence 544/590 nm, two experiments in triplicate
Experimental: as §1

[3] = 50% (v/v) TFE/PBS pH 7.4, peptide 0.01 mg mL-1, 20 °C
[4] = 50% (v/v) TFE/PBS pH 7.4, peptide 0.01 mg mL-1, 20 °C, Dichroweb, analyses repeated four times
[5] = DMPC vesicles, lipid:peptide 100 to 1, PBS, peptide 0.01 mg mL-1, 20 °C
[6] = DMPS vesicles, lipid:peptide 100 to 1, PBS, peptide 0.01 mg mL-1, 20 °C
[7] = PBS pH 7.4, peptide 0.01 mg mL-1, 20 °C, Dichroweb CDSSTR/SELCON3, analyses repeated four times
[8] = PBS pH 7.4, peptide 0.01 mg mL-1, 20 °C, Dichroweb, analyses repeated four times
[9] = 25 μM treatment, 30 days post amputation, in PAM

For “H-RKLAFRYRRIKELYNSYR-NH2 [Djeya1, octadecapeptide CPP mimicking the α5 helix of the Eya domain of eyes absent proteins]”, the “influence upon planarian head regeneration” value [1] was “inactive”, the Unordered [2, 3] was 20.00 ± 1.41% and the ß-Strand [2, 3] was 27.55 ± 3.53%. The ß-Turns [2, 3] was 7.00 ± 0.00%, the α-helix [2, 4] was 45.50 ± 4.94% and the Unordered [2, 5] was 22.00 ± 0.00%. The ß-Turns [2, 5] was 8.00 ± 0.0%, the α-helix [2, 5] was 44.00 ± 1.53% and the Unordered [2, 6] was 20.00 ± 0.00%. The ß-Strand [2, 6] was 26.00 ± 1.28%, the ß-Turns [2, 6] was 8.00 ± 0.00% and the α-helix [2, 6] was 47.00 ± 1.24%. It also gave a α-helix [2, 7] of 43.00 ± 1.73%, an Unordered [2, 8] of 20.00 ± 1.73% and a ß-Strand [2, 8] of 30.33 ± 0.58%. It also gave a ß-Turns [2, 8] of 6.67 ± 0.58%.
For “H-RKLAFRYRRIKELYN[Aib]YR-NH2 (SMILES CC[C@H](C)[C@H](NC(=O)[C@H](CCCNC(=N)N)NC(=O)[C@H](CCCNC(=N)N)NC(=O)[C@H](Cc1ccc(O)cc1)NC(=O)[C@H](CCCNC(=N)N)NC(=O)[C@H](Cc1ccccc1)NC(=O)[C@H](C)NC(=O)[C@H](CC(C)C)NC(=O)[C@H](CCCCN)NC(=O)[C@@H](N)CCCNC(=N)N)C(=O)N[C@@H](CCCCN)C(=O)N[C@@H](CCC(=O)O)C(=O)N[C@@H](CC(C)C)C(=O)N[C@@H](Cc1ccc(O)cc1)C(=O)N[C@@H](CC(N)=O)C(=O)NC(C)(C)C(=O)N[C@@H](Cc1ccc(O)cc1)C(=O)N[C@@H](CCCNC(=N)N)C(N)=O) [[Aib^16]Djeya1, Aib-substituted Djeya1 analogue, position 16; bioportide]”, the “rank order of uptake efficacy” value (U373MG cells) was “[Aib^16]Djeya1 = [Aib^10]Djeya1 > [Aib^13]Djeya1”, the “rank order of uptake efficacy” value (U251 cells) was “[Aib^13]Djeya1 > [Aib^16]Djeya1 > [Aib^10]Djeya1” and the “influence upon planarian head regeneration” value [1] was “delay head regeneration”. The response to light [1] was “unresponsive to light”, the “regeneration of the anterior pole, including the eye spots” value [1] was “absent” and the “animals that achieved full regeneration” value [1, 9] was “all”. The “animals that had commenced the development of photoreceptors within the unpigmented blastema” value [1] was 67%, the Unordered [2, 3] was 19.50 ± 0.71% and the ß-Strand [2, 3] was 27.50 ± 0.71%. The ß-Turns [2, 3] was 7.00 ± 0.00%, the α-helix [2, 4] was 46.00 ± 1.41% and the “difference in percentage α-helicity in the presence of lipid membranes” value [2] was “No difference”. It also gave an Unordered [2, 5] of 22.00 ± 0.71%, a ß-Strand [2, 5] of 30.00 ± 0.71% and a ß-Turns [2, 5] of 7.00 ± 0.71%. For the same substance, the α-helix [2, 5] was 42.00 ± 0.71%, the Unordered [2, 6] was 22.00 ± 0.71% and the ß-Strand [2, 6] was 30.00 ± 0.71%. For the same substance, the ß-Turns [2, 6] was 8.00 ± 0.71%, the α-helix [2, 6] was 42.00 ± 0.00% and the α-helix [2, 7] was 39.67 ± 4.04%. The Unordered [2, 8] was 21.00 ± 1.00%, the ß-Strand [2, 8] was 31.67 ± 2.87% and the ß-Turns [2, 8] was 7.33 ± 0.58%.
For “H-RKLAFRYRRIKE[Aib]YNSYR-NH2 (SMILES CC[C@H](C)[C@H](NC(=O)[C@H](CCCNC(=N)N)NC(=O)[C@H](CCCNC(=N)N)NC(=O)[C@H](Cc1ccc(O)cc1)NC(=O)[C@H](CCCNC(=N)N)NC(=O)[C@H](Cc1ccccc1)NC(=O)[C@H](C)NC(=O)[C@H](CC(C)C)NC(=O)[C@H](CCCCN)NC(=O)[C@@H](N)CCCNC(=N)N)C(=O)N[C@@H](CCCCN)C(=O)N[C@@H](CCC(=O)O)C(=O)NC(C)(C)C(=O)N[C@@H](Cc1ccc(O)cc1)C(=O)N[C@@H](CC(N)=O)C(=O)N[C@@H](CO)C(=O)N[C@@H](Cc1ccc(O)cc1)C(=O)N[C@@H](CCCNC(=N)N)C(N)=O) [[Aib^13]Djeya1, Aib-substituted Djeya1 analogue, position 13; bioportide]”, the “rank order of uptake efficacy” value (U373MG cells) was “[Aib^16]Djeya1 = [Aib^10]Djeya1 > [Aib^13]Djeya1”, the “uptake efficacy into U251 cells compared with U373MG cells” value (U251 cells; TAMRA-labelled peptide) was “increased uptake efficacy” and the “rank order of uptake efficacy” value (U251 cells) was “[Aib^13]Djeya1 > [Aib^16]Djeya1 > [Aib^10]Djeya1”. For the same substance, the “influence upon planarian head regeneration” value [1] was “delay head regeneration”, the response to light [1] was “unresponsive to light” and the “regeneration of the anterior pole, including the eye spots” value [1] was “absent”. The “animals that remained unregenerated and in stasis” value [1, 9] was 33%, the “animals that achieved full regeneration” value [1, 9] was 67% and the “animals that had commenced the development of photoreceptors within the unpigmented blastema” value [1] was 67%. The Unordered [2, 3] was 22.33 ± 1.50%, the ß-Strand [2, 3] was 31.00 ± 2.08% and the ß-Turns [2, 3] was 7.33 ± 0.05%. For the same substance, the α-helix [2, 4] was 40.00 ± 2.64%, the “effect of 50% TFE/PBS on α-helical structure” value ([2]; 50% TFE/PBS (v/v) compared with PBS) was “did not enhance” and the “difference in percentage α-helicity in the presence of lipid membranes” value [2] was “No difference”. For the same substance, the Unordered [2, 5] was 22.00 ± 0.71%, the ß-Strand [2, 5] was 30.00 ± 0.71% and the ß-Turns [2, 5] was 8.00 ± 0.71%. It also gave a α-helix [2, 5] of 42.00 ± 0.71%, an Unordered [2, 6] of 21.00 ± 0.71% and a ß-Strand [2, 6] of 30.00 ± 0.71%. For the same substance, the ß-Turns [2, 6] was 7.00 ± 0.71%, the α-helix [2, 6] was 42.00 ± 0.00% and the α-helix [2, 7] was 40.67 ± 1.52%. It also gave an Unordered [2, 8] of 22.33 ± 1.52%, a ß-Strand [2, 8] of 30.00 ± 1.00% and a ß-Turns [2, 8] of 7.00 ± 0.00%.
For “H-RKLAFRYRR[Aib]KELYNSYR-NH2 (SMILES CC(C)C[C@H](NC(=O)[C@H](CCCCN)NC(=O)[C@@H](N)CCCNC(=N)N)C(=O)N[C@@H](C)C(=O)N[C@@H](Cc1ccccc1)C(=O)N[C@@H](CCCNC(=N)N)C(=O)N[C@@H](Cc1ccc(O)cc1)C(=O)N[C@@H](CCCNC(=N)N)C(=O)N[C@@H](CCCNC(=N)N)C(=O)NC(C)(C)C(=O)N[C@@H](CCCCN)C(=O)N[C@@H](CCC(=O)O)C(=O)N[C@@H](CC(C)C)C(=O)N[C@@H](Cc1ccc(O)cc1)C(=O)N[C@@H](CC(N)=O)C(=O)N[C@@H](CO)C(=O)N[C@@H](Cc1ccc(O)cc1)C(=O)N[C@@H](CCCNC(=N)N)C(N)=O) [[Aib^10]Djeya1, Aib-substituted Djeya1 analogue, position 10]”, the “rank order of uptake efficacy” value (U373MG cells) was “[Aib^16]Djeya1 = [Aib^10]Djeya1 > [Aib^13]Djeya1”, the “rank order of uptake efficacy” value (U251 cells) was “[Aib^13]Djeya1 > [Aib^16]Djeya1 > [Aib^10]Djeya1” and the “influence upon planarian head regeneration” value [1] was “inactive”. It also gave an Unordered [2, 3] of 20.00 ± 0.00%, a ß-Strand [2, 3] of 21.00 ± 0.02% and a ß-Turns [2, 3] of 7.50 ± 0.71%. For the same substance, the α-helix [2, 4] was 51.50 ± 0.07%, the Unordered [2, 5] was 22.00 ± 1.41% and the ß-Turns [2, 5] was 7.00 ± 1.41%. It also gave a α-helix [2, 5] of 45.00 ± 1.58%, an Unordered [2, 6] of 16.00 ± 0.00% and a ß-Strand [2, 6] of 15.00 ± 0.00%. It also gave a ß-Turns [2, 6] of 5.00 ± 0.00%, a α-helix [2, 6] of 63.00 ± 2.82% and a α-helix [2, 7] of 41.33 ± 1.15%. The Unordered [2, 8] was 20.67 ± 0.58%, the ß-Strand [2, 8] was 31.33 ± 0.58% and the ß-Turns [2, 8] was 7.00 ± 0.00%.
